The target of one assay is T1, rppGalNAcT-10 (Rattus norvegicus, UniProt Q925R7).
T1 construct: plasmids encoding truncated secreted ppGalNAcTs-1 to −5, -7, -10 and -11; made in house; host or cells: COS-7
T1 sequence (Q925R7 32-603 limits assumed): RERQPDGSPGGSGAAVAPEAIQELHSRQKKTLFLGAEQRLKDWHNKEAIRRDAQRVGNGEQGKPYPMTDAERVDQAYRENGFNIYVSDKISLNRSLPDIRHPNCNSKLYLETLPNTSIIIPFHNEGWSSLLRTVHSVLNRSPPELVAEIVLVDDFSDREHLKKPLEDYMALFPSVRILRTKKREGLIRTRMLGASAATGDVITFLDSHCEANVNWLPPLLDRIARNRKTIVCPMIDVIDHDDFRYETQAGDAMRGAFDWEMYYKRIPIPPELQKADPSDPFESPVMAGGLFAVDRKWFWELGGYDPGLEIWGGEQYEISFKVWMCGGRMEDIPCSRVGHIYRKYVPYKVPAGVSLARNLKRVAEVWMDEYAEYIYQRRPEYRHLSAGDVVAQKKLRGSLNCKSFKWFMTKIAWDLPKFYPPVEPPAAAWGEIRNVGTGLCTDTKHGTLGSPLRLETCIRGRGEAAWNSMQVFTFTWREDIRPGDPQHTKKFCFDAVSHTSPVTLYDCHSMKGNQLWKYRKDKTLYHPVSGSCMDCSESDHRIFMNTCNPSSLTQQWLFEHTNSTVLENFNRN
The experiment in a line: Radiolabel capture assay, rppGalNAcT-10. In kind it is biochemical. To be noted: MUC5AC glycopeptide. The method, then:
Radiolabel capture assays using ^14C-labeled UDP-GalNAc were performed as previously described with various concentrations of 1-68A or 2-68A in 2% DMSO. Ten Hagen et al. (2001) J. Biol. Chem. 276:17395-17404.
Table 1. IC50 values for 1-68A and 2-68A with ppGalNAcTs-1 to −5, -7, -10, -11, β1-4GalT and α1-3GalT. The requirement of glycopeptides as substrates for ppGalNAcT-7 and -10 precluded the use of the ELLA, as both the substrate and product bind HPA-HRP. Thus, the radiolabel capture assay was employed to measure the IC50 values of 1-68A and 2-68A with ppGalNAcT-7 and -10 using MUC5AC (GTTPSPVPTTSTTSAP; SEQ ID NO:15) glycopeptide, previously shown to be substrate for both enzymes. Ten Hagen et al. (1999) J. Biol. Chem. 274:27867-27874; and Ten Hagen et al. (2001) J. Biol. Chem. 276:17395-17404. IC50 values of 1-68A and 2-68A with ppGalNAcT-5 were performed with α-FLAG purified enzyme and radiolabel capture assay, due to low activity and stability of the crude enzyme. m=murine, r=rattus.

Assay [1] concerns the target T2, β1-4galactosyltransferase (β1-4GalT) (Bos taurus, UniProt P08037).
T2 construct: purchased Calbiochem
T2 sequence (P08037 1-402): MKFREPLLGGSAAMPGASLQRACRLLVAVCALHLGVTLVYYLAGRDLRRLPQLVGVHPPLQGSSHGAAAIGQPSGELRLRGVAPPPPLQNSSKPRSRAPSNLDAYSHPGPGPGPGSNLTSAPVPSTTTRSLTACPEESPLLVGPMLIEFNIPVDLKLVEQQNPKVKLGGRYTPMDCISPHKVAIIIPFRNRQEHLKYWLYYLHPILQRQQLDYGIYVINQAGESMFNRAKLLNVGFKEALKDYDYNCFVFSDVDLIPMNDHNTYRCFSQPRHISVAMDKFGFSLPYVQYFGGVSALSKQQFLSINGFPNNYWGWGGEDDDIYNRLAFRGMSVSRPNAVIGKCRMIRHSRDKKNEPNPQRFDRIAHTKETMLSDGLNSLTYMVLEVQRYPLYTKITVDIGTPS
Description: Continuous assay for β1-4GalT activity. In kind it is biochemical, bovine. To be noted: for inhibitory activity against β1-4GalT: highest concentration tested (500 μM). On the procedure:
The enzymatic reactions contained the following components in a final volume of 100 μL: 20 mM MnCl2, 100 mM sodium cacodylate, pH 6.5, 5 U of pyruvate kinase, 5 U of lactate dehydrogenase, 2 mM PEP, 0.2 mM NADH with 0.4 mU of β1-4GalT, 1 mM βOMeGlcNAc, 25 μM UDP-Gal or 1.0 mU of α1-3GalT, 1 mM LacNAc, 100 μM UDP-Gal and various concentrations of 1-68A or 2-68A in 2.5% DMSO. The reaction mixtures were incubated at 37° C. for 10 min before the reaction was initiated by the addition of UDP-Gal. The change in absorbance was monitored over 20 min at 340 nm.
To determine the selectivity of the compounds among the broader family of UDP-sugar utilizing enzymes, 1-68A and 2-68A were tested against bovine β1-4galactosyltransferase (β1-4GalT) and porcine α1-3galactosyltransferase (α1-3GalT), using a previously reported continuous colorimetric assay. Fitzgerald et al. (1970) Anal. Biochem. 36:43-61. Neither compound was active against β1-4GalT or α1-3GalT at the highest concentration tested (500 μM) (Entries 9 and 10, Table 1).

In a further assay the test system is Jurkat cells. Description: HPA staining of Jurkat cells (Tn-antigen), flow cytometry. In kind it is cell-based, human. The conditions noted are these: Homo sapiens, 48 h, read-out: EC50 of inhibition of HPA staining. On the procedure:
Jurkat cells were seeded at 250,000 cells/well (determined by Coulter cell counter) in 12-well polystyrene tissue culture plates in 1.0 mL of media and treated with various concentrations of 1-68A or 2-68A from 50 mM dimethyl sulfoxide (DMSO) stock solutions or doxorubicin or campothecin from 1 mM DMSO stock solutions. After 2 d, cells were harvested, washed twice with PBS buffer (PBS, pH 7.4, 0.1% FCS, 0.1% NaN3 w/v) and stained with FITC-HPA (1 μg/mL) or FITC-Con A (5 μg/mL with 1 mM CaCl2) in PBS, pH 7.4 in the dark for 1 h at 4° C. Cells were washed twice with PBS buffer, resuspended in 300 μL of PBS buffer and analyzed by flow cytometry (FacsCaliber, BD Instruments). Annexin-V staining was performed according to the manufacturer's protocols (Invitrogen).
To directly monitor ppGalNAcT activities in cells, Jurkat cells (human T-cell lymphoma), which are known to produce only the Tn-antigen (FIG. 1) as their O-linked glycans, were chosen. Piller et al. (1990) J. Biol. Chem. 265:9264-9271. Changes in Tn-antigen expression on the surface of Jurkat cells were monitored by HPA binding followed by flow cytometry analysis. Con A staining of N-linked glycans was used as a control for non-specific inhibition of protein glycosylation. Baenziger and Fiete (1979) J. Biol. Chem. 254:2400-2407.
A general note: In flow cytometry, cells or beads pass a laser one at a time.

Each structure is given as a SMILES string. Like-named read-outs stand apart in the source and are kept apart here.

By IC50 is commonly meant the point on the concentration scale where inhibition reaches its midpoint. Read a high IC50 as weaker potency in that assay. For orientation: EC50 means the concentration giving half of the maximal effect. As for `O=c1ccn([C@@H]2O[C@H](CON=Cc3ccc(O)c(O)c3O)[C@@H](O)[C@H]2O)c(=O)[nH]1` [1-68A], the IC50 on rppGalNAcT-10 was 7 ± 1 µM; in assay [1] it was more than 500 µM. The “inhibitory activity against β1-4GalT” value in assay [1] was “lack of inhibitory activity”. The EC50 in the assay on Jurkat cells (Jurkat cells, 2 d treatment) is approximately 80 µM.

For `O=C(CON=Cc1ccc(O)c(O)c1O)NC[C@H]1O[C@@H](n2ccc(=O)[nH]c2=O)[C@H](O)[C@@H]1O` [2-68A], at rppGalNAcT-10, the IC50 amounted to 6 ± 1 µM. For the same molecule, in assay [1], the IC50 was more than 500 µM and the “inhibitory activity against β1-4GalT” value was “lack of inhibitory activity”. Moreover, in the assay with Jurkat cells (Jurkat), the concentration for a half-maximal effect (EC50) is approximately 80 µM.

The record behind these values is patent US20060063736A1, “Compositions and methods for inhibiting mucin-type O-linked glycosylation” (priority 2004, published 2006).
